Columns and labels:
[1] = tested on: IL-17A-induced G-CSF production in human normal keratinocyte (NHK); assay: NHK assay: IL-17A-induced G-CSF production in normal human keratinocytes; format: cell-based; settings: 24 h, IL-17A 5 ng/mL, average if tested more than once
Procedure, shortened: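 IC50 derives from G-CSF in supernatants, quantified by HTRF from a standard curve, with CellTiter-Glo viability compared to DMSO control. Before a 24 h, 37°C culture of normal human keratinocytes at 3000–4000 cells/well, compound dilutions were preincubated 1 h at rt with human IL-17A (5 ng/mL final), with 0.2% DMSO and 5% FBS.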

[2] = target: T1, IL-17A : IL-17RA binding (Homo sapiens, UniProt Q16552, K93Q); assay: IL-17A(FLAG-tagged):IL-17RA(His-tagged) binding disruption Eu-HTRF assay, Protocol 2; settings: FLAG-IL-17A 1 nM at 2x final concentration; average if tested more than once
T1 construct: Name: IL-17A-Flag
Text: An antibody directed against the FLAG tag of IL-17A (SEQ ID NO: 1) is labeled with the HTRF donor chromophore (Europium-cryptate). IL-17A is present as a dimer that is “locked into” this quaternary structure due to the formation of loop-spanning […] disulfide bridges. The construct of IL-17RA used in the assay excludes the […] portion of the receptor and is fused to a C-terminal 10×His tag (SEQ ID NO:2). An antibody directed against the His tag of the IL-17RA chimera is labeled with the HTRF acceptor chromophore (“D2”). The fluorescence-resonance energy transfer (FRET) depends on the vicinity of the donor chromophore to the acceptor, and interruption of the binding between the IL-17A and IL-17RA causes the reduction/loss of FRET. Therefore, this assay allows to evaluate the compound effect on the binding IL-17A and IL-17RA by monitoring the fluorescence intensity of donor vs acceptor. The assay was run using either Protocol 1 or Protocol 2 as described below.
Protocol 2. 40 nl of 2-fold serial diluted compound solution for total 22 dilution points is added into each well of a 1536-well, white, low-volume, non-binding plate (Greiner #782904), then 2 μl of FLAG tagged IL-17A at 2× final concentration (1 nM) in solution of PBS+0.01% Triton-X100 is added to each well. The assay plate is briefly centrifuged then incubated for 1 h at rt. A mixed solution is prepared containing 2×5 nM 10HIS×IL-17RA, 2×2.5 nM Eu-anti-FLAG (CISBIO), 2×5 nM D2-anti-HIS (CISBIO) in PBS+0.01% Triton-X100+200 mM Potassium Fluoride (Sigma 60238) and 2 μl of mix is added to each well of the assay plate. The plate is briefly centrifuged then incubated for 2 h at rt. The HTRF intensities at the wavelength of donor (615 nm) and acceptor (665 nm) are measured using BMG Pherastar. The ratio between intensities at two wavelengths is calculated and plotted against the compound concentration and the data is fitted to a one-site competition model to yield IC50 of the compound.

[3] = target: T1, IL-17A : IL-17RA binding; assay: IL-17A(FLAG-tagged):IL-17RA(His-tagged) binding disruption Eu-HTRF assay, Protocol 1; settings: FLAG-IL-17A 2.5 nM at 2x final concentration; average if tested more than once
Procedure, shortened: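 IC50 came from a one-site competition fit of the acceptor/donor (665/620 nm) HTRF ratio. His-tagged IL-17RA, Eu-anti-FLAG and D2-anti-His were added after a 1 h rt compound preincubation with FLAG-tagged IL-17A dimer in PBS/0.01% Triton X-100, followed by 2 h at rt before reading.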

T1 sequence (Q16552 with tags, fused parts or gaps K93Q): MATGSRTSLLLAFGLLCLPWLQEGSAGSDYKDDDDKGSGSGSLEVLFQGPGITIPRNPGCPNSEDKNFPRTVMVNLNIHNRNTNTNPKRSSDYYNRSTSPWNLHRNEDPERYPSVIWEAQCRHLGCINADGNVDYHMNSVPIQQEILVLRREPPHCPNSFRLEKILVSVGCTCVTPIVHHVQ

Row | IC50 [2] | IC50 [3] | SMILES | IC50 ([1]; Homo sapiens, Keratinocyte) | IC50 [1]
1 | 50 to 100 nM | – | C[C@@H](OC1CC1)[C@H](NC(=O)c1nonc1C1CC1)c1nc2cc([C@@H](COC3CC3)NC(=O)CC3CC(F)(F)C3)ccc2[nH]1 [Example 276, N-((1R,2R)-2-Cyclopropoxy-1-(5-((S)-2-cyclopropoxy-1-(2-(3,3-difluorocyclobutyl)acetamido)ethyl)-1H-benzo[d]imidazol-2-yl)propyl)-4-cyclopropyl-1,2,5-oxadiazole-3-carboxamide] | < 50 nM | –
2 | < 50 nM | < 50 nM | COC[C@H](NC(=O)CC1CC(F)(F)C1)c1ccc2nc([C@H](COC(C)(C)C(F)(F)F)NC(=O)c3nonc3C3CC3)[nH]c2c1 (relative stereo) [Example 164, 4-Cyclopropyl-N—((R)-1-(5-((R*)-1-(2-(3,3-difluorocyclobutyl)acetamido)-2-methoxyethyl)-1H-benzo[d]imidazol-2-yl)-2-((1,1,1-trifluoro-2-methylpropan-2-yl)oxy)ethyl)-1,2,5-oxadiazole-3-carboxamide] | < 50 nM | –
3 | < 50 nM | < 50 nM | C[C@@H](NC(=O)CC1CC(F)(F)C1)c1ccc2nc(C(COC(C)(C)C(F)(F)F)NC(=O)c3nonc3C3CC3)[nH]c2c1 (single isomer, unassigned) [Example 152, 4-Cyclopropyl-N—((R*)-1-(6-((R)-1-(2-(3,3-difluorocyclobutyl)acetamido)ethyl)-1H-benzo[d]imidazol-2-yl)-2-((1,1,1-trifluoro-2-methylpropan-2-yl)oxy)ethyl)-1,2,5-oxadiazole-3-carboxamide] | < 50 nM | –
4 | 50 to 100 nM | – | Cc1nonc1C(=O)N[C@H](c1nc2cc([C@@H](COC3CC3)NC(=O)C[C@H]3CC3(F)F)ccc2[nH]1)[C@@H](C)O[C@H](C)C(F)(F)F [Example 275, N-((1R,2R)-1-(5-((S)-2-Cyclopropoxy-1-(2-((S)-2,2-difluorocyclopropyl)acetamido)ethyl)-1H-benzo[d]imidazol-2-yl)-2-(((R)-1,1,1-trifluoropropan-2-yl)oxy)propyl)-4-methyl-1,2,5-oxadiazole-3-carboxamide] | 50 to 100 nM | –
5 | 50 to 100 nM | – | Cc1nonc1C(=O)N[C@H](c1nc2cc([C@@H](COC3CC3)NC(=O)C[C@H]3CC3(F)F)ccc2[nH]1)[C@@H](C)OC(C)(C)C(F)(F)F [Example 270, N-((1R,2R)-1-(5-((S)-2-Cyclopropoxy-1-(2-((S)-2,2-difluorocyclopropyl)acetamido)ethyl)-1H-benzo[d]imidazol-2-yl)-2-((1,1,1-trifluoro-2-methylpropan-2-yl)oxy)propyl)-4-methyl-1,2,5-oxadiazole-3-carboxamide] | 50 to 100 nM | –
6 | 50 to 100 nM | – | Cc1nonc1C(=O)N[C@H](c1nc2cc([C@@H](COC3CC3)NC(=O)CC3CC(F)(F)C3)ccc2[nH]1)[C@@H](C)O[C@@H](C)C(F)(F)F [Example 274, N-((1R,2R)-1-(5-((S)-2-Cyclopropoxy-1-(2-(3,3-difluorocyclobutyl)acetamido)ethyl)-1H-benzo[d]imidazol-2-yl)-2-(((S)-1,1,1-trifluoropropan-2-yl)oxy)propyl)-4-methyl-1,2,5-oxadiazole-3-carboxamide] | – | 50 to 100 nM
7 | > 100 nM | – | CC(C)n1nccc1C(=O)N[C@H](c1nc2cc([C@@H](COC3CC3)NC(=O)CC3CC(F)(F)C3)ccc2[nH]1)[C@@H](C)O[C@@H](C)C(F)(F)F [Example 273, N-((1R,2R)-1-(5-((S)-2-Cyclopropoxy-1-(2-(3,3-difluorocyclobutyl)acetamido)ethyl)-1H-benzo[d]imidazol-2-yl)-2-(((S)-1,1,1-trifluoropropan-2-yl)oxy)propyl)-1-isopropyl-1H-pyrazole-5-carboxamide] | < 50 nM | –
8 | > 100 nM | – | Cc1nonc1C(=O)N[C@H](c1nc2cc([C@@H](COC3CC3)NC(=O)CC3CC(F)(F)C3)ccc2[nH]1)[C@@H](C)O[C@@H](C)C(F)(F)F [Example 272, N-((1R,2R)-1-(5-((S)-2-Cyclopropoxy-1-(2-(3,3-difluorocyclobutyl)acetamido)ethyl)-1H-benzo[d]imidazol-2-yl)-2-(((S)-1,1,1-trifluoropropan-2-yl)oxy)propyl)-4-methyl-1,2,5-oxadiazole-3-carboxamide] | < 50 nM | –
9 | 50 to 100 nM | – | Cc1nonc1C(=O)N[C@H](c1nc2cc([C@@H](COC3CC3)NC(=O)CC3CC(F)(F)C3)ccc2[nH]1)[C@@H](C)OC(C)(C)C(F)(F)F [Example 271, N-((1R,2R)-1-(5-((S)-2-Cyclopropoxy-1-(2-(3,3-difluorocyclobutyl)acetamido)ethyl)-1H-benzo[d]imidazol-2-yl)-2-((1,1,1-trifluoro-2-methylpropan-2-yl)oxy)propyl)-4-methyl-1,2,5-oxadiazole-3-carboxamide] | < 50 nM | –
10 | – | > 100 nM | CC(C)n1nccc1C(=O)N[C@@H](CC1(C(F)(F)F)CC1)c1nc2ccc([C@H](NC(=O)CC3CC(F)(F)C3)C3CC3)cc2[nH]1 [Example 243, N—((S)-1-(6-((R)-Cyclopropyl(2-(3,3-difluorocyclobutyl)acetamido)methyl)-1H-benzo[d]imidazol-2-yl)-2-(1-(trifluoromethyl)cyclopropyl)ethyl)-1-isopropyl-1H-pyrazole-5-carboxamide] | 50 to 100 nM | –
11 | – | > 100 nM | C[C@@H](NC(=O)CCC(F)(F)F)c1ccc2nc([C@@H](NC(=O)c3ccnn3CCC(F)(F)F)C3CCC(F)(F)CC3)[nH]c2c1 [Example 121, N—((S)-(4,4-Difluorocyclohexyl)(6-((R)-1-(4,4,4-trifluorobutanamido)ethyl)-1H-benzo[d]imidazol-2-yl)methyl)-1-(3,3,3-trifluoropropyl)-1H-pyrazole-5-carboxamide] | < 50 nM | –
12 | – | > 100 nM | CC(C)n1ncnc1C(=O)NC(CC(C)(C)C(F)(F)F)c1nc2cc([C@@H](C)NC(=O)CCC(F)(F)F)ccc2[nH]1 (single isomer, unassigned) [Example 196, 1-Isopropyl-N—((S*)-4,4,4-trifluoro-3,3-dimethyl-1-(5-((R)-1-(4,4,4-trifluorobutanamido)ethyl)-1H-benzo[d]imidazol-2-yl)butyl)-1H-1,2,4-triazole-5-carboxamide] | > 100 nM | –
13 | – | < 50 nM | Cc1nonc1C(=O)N[C@H](c1nc2cc([C@H](NC(=O)CCC(F)(F)F)C3CC3)ccc2[nH]1)[C@@H]1CCCC(F)(F)C1 [Example 263, N—((S)-(5-((R)-Cyclopropyl(4,4,4-trifluorobutanamido)methyl)-1H-benzo[d]imidazol-2-yl)((R)-3,3-difluorocyclohexyl)methyl)-4-methyl-1,2,5-oxadiazole-3-carboxamide] | 50 to 100 nM | –
14 | – | > 100 nM | Cc1nonc1C(=O)N[C@H](c1nc2ccc([C@H](NC(=O)CC3CC(F)(F)C3)C3CC3)cc2[nH]1)C1CCOC(C)(C)C1 (single isomer, unassigned) [Example 173, N—((S)-(6-((R)-Cyclopropyl(2-(3,3-difluorocyclobutyl)acetamido)methyl)-1H-benzo[d]imidazol-2-yl)((S*)-2,2-dimethyltetrahydro-2H-pyran-4-yl)methyl)-4-methyl-1,2,5-oxadiazole-3-carboxamide] | > 100 nM | –
15 | – | > 100 nM | CC(C)n1nccc1C(=O)N[C@@H](C[C@H]1CCC(F)(F)C1)c1nc2ccc([C@H](NC(=O)CC3CC(F)(F)C3)C3CC3)cc2[nH]1 [Example 236, N—((S)-1-(6-((R)-Cyclopropyl(2-(3,3-difluorocyclobutyl)acetamido)methyl)-1H-benzo[d]imidazol-2-yl)-2-((R)-3,3-difluorocyclopentyl)ethyl)-1-isopropyl-1H-pyrazole-5-carboxamide] | > 100 nM | –

— patent publication US20240376085A1 (Janssen Pharmaceutica NV, priority 2021, published 2024)
